The values below come from ChEMBL document CHEMBL1142600, “Production of justicidin B, a cytotoxic arylnaphthalene lignan from genetically transformed root cultures of Linum leonii” (J Nat Prod, 2006).

Holding throughout (format): functional, cell-based
The nature of experiment [1]: Cytotoxicity against human SKW3 cells after 72 hrs by MTT assay. To be noted: SKW3, 72 h. (In general: Tetrazolium assays rely on reduction of a dye to a coloured formazan, in cell work by metabolically active cells.)
The test system of experiment [2] is K562. As to the kind of experiment: Cytotoxicity against human K-562 cells after 72 hrs by MTT assay. The note with it: K562, 72 h.
In experiment [3] the test system is LAMA-84. As to the kind of experiment: Cytotoxicity against human LAMA-84 cells after 72 hrs by MTT assay. The note with it: LAMA-84, 72 h.

For orientation: IC50 means the midpoint of a concentration-inhibition curve. Regarding `COc1cc([C@@H]2c3cc4c(cc3[C@@H](O[C@@H]3O[C@@H]5CO[C@@H](C)O[C@H]5[C@H](O)[C@H]3O)[C@H]3COC(=O)[C@H]23)OCO4)cc(OC)c1O` [ETOPOSIDE], the IC50 in experiment [1] was 820 nM; in experiment [2], 1870 nM; in experiment [3] it was 790 nM.
